The results in this text go back to PMC6957248 (Bioorganic & medicinal chemistry letters, 2016).

For test [1], the target named is T1, human TRPV1 heterologously expressed in Chinese hamster ovary (CHO) cells (Homo sapiens, UniProt Q8NER1). In words: binding competition assay with [3H]-resiniferatoxin. The conditions noted are these: for fold weaker binding affinity compared to 1: ratio of Ki versus compound 1.
The target in test [2] is T1, human TRPV1 heterologously expressed in Chinese hamster ovary (CHO) cells. The test is classed as cell-based. Conditions: for fold weaker antagonistic potency compared to 1: ratio of Ki(ant) versus compound 1.

Each structure is given as a SMILES string.

T1 sequence (Q8NER1 whole entry): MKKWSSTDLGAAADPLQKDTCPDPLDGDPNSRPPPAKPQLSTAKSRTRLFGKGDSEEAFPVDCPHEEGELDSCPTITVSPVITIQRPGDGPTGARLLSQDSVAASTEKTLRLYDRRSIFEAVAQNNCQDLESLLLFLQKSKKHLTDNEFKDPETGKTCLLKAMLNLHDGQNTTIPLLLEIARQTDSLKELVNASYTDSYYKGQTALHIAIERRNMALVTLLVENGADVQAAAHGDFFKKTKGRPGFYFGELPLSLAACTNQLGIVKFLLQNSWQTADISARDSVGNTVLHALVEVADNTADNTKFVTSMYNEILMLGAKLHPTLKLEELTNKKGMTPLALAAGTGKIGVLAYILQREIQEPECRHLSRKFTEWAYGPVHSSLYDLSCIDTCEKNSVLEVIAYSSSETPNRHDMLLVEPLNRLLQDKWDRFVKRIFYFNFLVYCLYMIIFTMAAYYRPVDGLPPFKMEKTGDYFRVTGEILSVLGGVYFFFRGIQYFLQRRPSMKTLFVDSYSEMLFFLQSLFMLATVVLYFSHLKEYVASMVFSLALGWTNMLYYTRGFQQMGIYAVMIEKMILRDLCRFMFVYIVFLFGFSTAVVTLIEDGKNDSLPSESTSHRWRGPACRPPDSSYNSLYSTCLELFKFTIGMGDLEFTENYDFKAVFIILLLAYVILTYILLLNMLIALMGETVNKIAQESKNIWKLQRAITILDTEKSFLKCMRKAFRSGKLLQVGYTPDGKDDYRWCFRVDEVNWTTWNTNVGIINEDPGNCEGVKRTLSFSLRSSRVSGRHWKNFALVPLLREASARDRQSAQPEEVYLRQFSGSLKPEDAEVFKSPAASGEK

As to `CC1CCN(c2nc(C(F)(F)F)ccc2CNC(=O)Nc2ccc(NS(C)(=O)=O)c(F)c2)CC1` [Compound 21], the “fold weaker binding affinity compared to 1” value in test [1] is 11 fold. Besides, the “fold weaker antagonistic potency compared to 1” value in test [2] was found to be 67 fold.
For `CC1CCN(c2nc(C(F)(F)F)ccc2CNC(=O)C(C)c2ccc(CNS(C)(=O)=O)c(F)c2)CC1` (stereo not shown) [Compound 16], in that order: 29 fold and 12 fold.
On to `Cc1cccc(N(C(=O)NCc2ccc(C(F)(F)F)nc2N2CCC(C)CC2)c2ccc(NS(C)(=O)=O)c(F)c2)c1` [Compound 42], for which, in test [2] (cells incubated with compound 15 min before challenge with capsaicin), the “extent of antagonism, 15 min pre-incubation” value is on record as “full antagonism”.
As to `CC1CCN(c2nc(C(F)(F)F)ccc2CCNC(=O)Nc2ccc(NS(C)(=O)=O)c(F)c2)CC1` [Compound 22], in test [2] (capsaicin stimulated 45Ca2+ uptake), the character of antagonism entry is “partial antagonist”.
With `CC1CCN(c2nc(C(F)(F)F)ccc2CCNC(=O)C(C)c2ccc(NS(C)(=O)=O)c(F)c2)CC1` (stereo not shown) [Compound 11], the “fold weaker binding affinity compared to 1” value in test [1] worked out at 7 fold. In test [2], the “fold weaker antagonistic potency compared to 1” value amounted to 43 fold.
As for `CC1CCN(c2nc(C(F)(F)F)ccc2CNC(=O)Nc2ccc(CNS(C)(=O)=O)c(F)c2)CC1` [Compound 27], the “fold increase in binding affinity compared to 21” value in test [1] (ratio of Ki versus compound 21) is “approximately 12 fold”. Also, the “fold increase in antagonistic potency compared to 21” value in test [2] (ratio of Ki(ant) versus compound 21) is listed as “approximately 12 fold”.
